Test results from patent US7928139B2 (Amgen Inc., priority 2006, dated 2011).

Target: HIF PHD2 (Homo sapiens, UniProt Q9GZT9)
Assay: PHD2 inhibition assay (TR-FRET, VCB-Eu detection of hydroxylated P564-HIF1α peptide)
Assay type: biochemical
Conditions: 2 nM PHD2, 100 nM P564-HIF1α peptide, 0.25 μM 2-oxoglutarate, 100 μM FeCl2, 2 mM ascorbic acid
Method in brief: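 Human PHD2 (2 nM final) preincubated 1 h at room temperature with compound and 100 μM FeCl2 in pH 6 MES buffer, 5% DMSO final. Reaction with 100 nM biotinylated P564-HIF1α peptide, 2 mM ascorbate and 0.25 μM 2-oxoglutarate for 1 h, stopped with succinate. Hydroxylation read by TR-FRET (VCB-Eu/streptavidin-APC, 655/615 nm); IC50 from 4-parameter fit of percent of control.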

HIF PHD2, sequence (Q9GZT9 whole entry): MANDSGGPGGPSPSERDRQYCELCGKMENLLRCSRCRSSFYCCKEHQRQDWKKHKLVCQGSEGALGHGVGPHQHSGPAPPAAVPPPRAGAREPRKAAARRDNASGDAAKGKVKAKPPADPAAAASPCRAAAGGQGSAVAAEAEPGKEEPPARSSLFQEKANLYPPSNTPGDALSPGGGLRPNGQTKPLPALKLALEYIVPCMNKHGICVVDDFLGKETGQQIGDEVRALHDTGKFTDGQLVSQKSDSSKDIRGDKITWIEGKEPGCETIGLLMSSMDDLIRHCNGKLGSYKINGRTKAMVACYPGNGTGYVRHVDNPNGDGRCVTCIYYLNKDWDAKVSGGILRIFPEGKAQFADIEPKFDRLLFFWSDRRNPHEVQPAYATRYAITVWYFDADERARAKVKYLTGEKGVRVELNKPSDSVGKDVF

Row | IC50 [nM] | SMILES
1 | < 100 | CC1(C)C(=O)C(C(=O)NCC(=O)O)=C(O)c2c(Cl)cccc21 [Example 82, N-((5-Chloro-4-hydroxy-1,1-dimethyl-2-oxo-naphthalen-3-yl)carbonyl)glycine]
2 | < 100 | O=C(O)CNC(=O)C1=C(O)c2cccc(F)c2C2(CCOCC2)C1=O [Example 83, N-((8-Fluoro-4-hydroxy-2-oxo-2′,3′,5′,6′-tetrahydro-spiro[naphthalene-1,4′-pyran]-3-yl)carbonyl)glycine]
3 | < 100 | CC1(C#N)C(=O)C(C(=O)NCC(=O)O)=C(O)c2cc(Cl)ccc21 (centres unmarked) [Example 84, N-((6-Chloro-1-cyano-4-hydroxy-1-methyl-2-oxo-naphthalen-3-yl)carbonyl)glycine]
4 | < 100 | C[C@@]1(C#N)C(=O)C(C(=O)NCC(=O)O)=C(O)c2cc(Cl)ccc21 [Example 85, N-(((1R)-6-Chloro-1-cyano-4-hydroxy-1-methyl-2-oxo-naphthalen-3-yl)carbonyl)glycine]
5 | < 100 | C[C@]1(C#N)C(=O)C(C(=O)NCC(=O)O)=C(O)c2cc(Cl)ccc21 [Example 86, N-(((1S)-6-Chloro-1-cyano-4-hydroxy-1-methyl-2-oxo-naphthalen-3-yl)carbonyl)glycine]
6 | < 100 | C[C@@]1(C#N)C(=O)C(C(=O)NCC(=O)O)=C(O)c2ccccc21 [Example 87, N-(((1R)-1-Cyano-4-hydroxy-1-methyl-2-oxo-naphthalen-3-yl)carbonyl)glycine]
7 | < 100 | C[C@]1(C#N)C(=O)C(C(=O)NCC(=O)O)=C(O)c2ccccc21 [Example 88, N-(((1S)-1-Cyano-4-hydroxy-1-methyl-2-oxo-naphthalen-3-yl)carbonyl)glycine]
8 | < 100 | CC1(C)C(=O)C(C(=O)NCC(=O)O)=C(O)c2cccc(Cl)c21 [Example 89, N-((8-Chloro-4-hydroxy-1,1-dimethyl-2-oxo-naphthalen-3-yl)carbonyl)glycine]
9 | < 100 | CC1(C)C(=O)C(C(=O)NCC(=O)O)=C(O)c2ccc(Cl)c(F)c21 [Example 90, N-((7-Chloro-8-fluoro-4-hydroxy-1,1-dimethyl-2-oxo-naphthalen-3-yl)carbonyl)glycine]
10 | < 100 | O=C(O)CNC(=O)C1=C(O)c2cc(Cl)ccc2C2(CCN(C(=O)c3ccccc3)CC2)C1=O [Example 91, N-((6-Chloro-4-hydroxy-2-oxo-1′-(phenylcarbonyl)-spiro[naphthalene-1,4′-piperidin]-3-yl)carbonyl)glycine]
11 | < 100 | CC1(C)C(=O)C(C(=O)NCC(=O)O)=C(O)c2cc(Cl)c(F)cc21 [Example 92, N-((6-Chloro-7-fluoro-4-hydroxy-1,1-dimethyl-2-oxo-naphthalen-3-yl)carbonyl)glycine]
12 | < 100 | O=C(O)CNC(=O)C1=C(O)c2cc(Cl)ccc2C2(CCC2)C1=O [Example 93, N-((6′-Chloro-4′-hydroxy-2′-oxo-spiro[cyclobutane-1,1′-naphthalen]-3′-yl)carbonyl)glycine]
13 | < 100 | O=C(O)CNC(=O)C1=C(O)c2ccccc2C2(CCOCC2)C1=O [Example 94, N-((4-hydroxy-2-oxo-2′,3′,5′,6′-tetrahydro-spiro[naphthalene-1,4′-pyran]-3-yl)carbonyl)glycine]
14 | 100 to 500 | O=C(N[C@@H](CO)C(=O)O)C1=C(O)c2cc(Cl)ccc2C2(CCOCC2)C1=O [Example 95, N-((6-Chloro-4-hydroxy-2-oxo-2′,3′,5′,6′-tetrahydro-spiro[naphthalene-1,4′-pyran]-3-yl)carbonyl)-L-serine]
15 | < 100 | CC1(C)C(=O)C(C(=O)NCC(=O)O)=C(O)c2cc(F)c(Cl)cc21 [Example 96, N-((7-Chloro-6-fluoro-4-hydroxy-1,1-dimethyl-2-oxo-naphthalen-3-yl)carbonyl)glycine]
16 | < 100 | O=C(O)CNC(=O)C1=C(O)c2cc(F)c(Cl)cc2C2(CCOCC2)C1=O [Example 97, N-((7-Chloro-6-fluoro-4-hydroxy-2-oxo-2′,3′,5′,6′-tetrahydro-spiro[naphthalene-1,4′-pyran]-3-yl)carbonyl)glycine]
17 | < 100 | COC/C=C/c1ccc2c(c1)C(C)(C)C(=O)C(C(=O)NCC(=O)O)=C2O [Example 98, N-((4-Hydroxy-1,1-dimethyl-7-((1E)-3-(methyloxy)-1-propen-1-yl)-2-oxo-naphthalen-3-yl)carbonyl)glycine]
18 | < 100 | COCCCc1ccc2c(c1)C(C)(C)C(=O)C(C(=O)NCC(=O)O)=C2O [Example 99, N-((4-Hydroxy-1,1-dimethyl-7-(3-(methyloxy)propyl)-2-oxo-naphthalen-3-yl)carbonyl)glycine]
19 | > 10000 | CNC(=O)C1=C(O)c2cc(Cl)ccc2C(C)(C)C1=O [Example 100, 6-Chloro-4-hydroxy-N,1,1-trimethyl-2-oxo-naphthalene-3-carboxamide]

Row | IC50 [nM] | SMILES
20 | > 10000 | CC1(C)C(=O)C(C(N)=O)=C(O)c2cc(Cl)ccc21 [Example 101, 6-Chloro-4-hydroxy-1,1-dimethyl-2-oxo-naphthalene-3-carboxamide]
21 | > 10000 | C[C@@H](NC(=O)C1=C(O)c2cc(Cl)ccc2C(C)(C)C1=O)C(=O)O [Example 102, N-((6-chloro-4-hydroxy-1,1-dimethyl-2-oxo-naphthalen-3-yl)carbonyl)-D-alanine]
22 | < 100 | CC1(C)C(=O)C(C(=O)NCC(=O)O)=C(O)c2cccnc21 [Example 103, 2-(5-Hydroxy-8,8-dimethyl-7-oxo-7,8-dihydroquinoline-6-carboxamido)acetic acid]
23 | < 100 | CC1(C)C(=O)C(C(=O)CCC(=O)O)=C(O)c2cc(Br)ccc21 [Example 104, 4-(7-Bromo-1-hydroxy-4,4-dimethyl-3-oxo-3,4-dihydronaphthalen-2-yl)-4-oxobutanoic acid]
24 | < 100 | CC1(C)C(=O)C(C(=O)NCC(=O)O)=C(O)c2ccncc21 [Example 105, 2-(5-Hydroxy-8,8-dimethyl-7-oxo-7,8-dihydroisoquinoline-6-carboxamido)acetic acid]
25 | < 100 | CC1(C)C(=O)C(C(=O)NCC(=O)O)=C(O)c2ccc(C(=O)O)cc21 [Example 106, 6-((Carboxymethyl)carbamoyl)-7-hydroxy-8,8-dimethyl-5-oxo-5,8-dihydronaphthalene-2-carboxylic acid]
26 | 100 to 500 | CC1(C)C(=O)C(C(=O)NCC(=O)O)=C(O)c2ccc(NCCN3CCOCC3)cc21 [Example 107, 2-(2-Hydroxy-1,1-dimethyl-7-(2-morpholinoethylamino)-4-oxo-1,4-dihydronaphthalene-3-carboxamido)acetic acid]
27 | < 100 | CC1(C)C(=O)C(C(=O)NCC(=O)O)=C(O)c2ccc(/C=C/c3ccccc3)cc21 [Example 108, (E)-2-(2-Hydroxy-1,1-dimethyl-4-oxo-7-styryl-1,4-dihydronaphthalene-3-carboxamido)acetic acid]
28 | < 100 | CC1(C)C(=O)C(C(=O)NCC(=O)O)=C(O)c2ccc(CCc3ccccc3)cc21 [Example 109, 2-(2-Hydroxy-1,1-dimethyl-4-oxo-7-phenethyl-1,4-dihydronaphthalene-3-carboxamido)acetic acid]
29 | 100 to 500 | CC1(C)C(=O)C(C(=O)NCC(=O)O)=C(O)c2ccc(C#Cc3ccccc3)cc21 [Example 110, 2-(2-Hydroxy-1,1-dimethyl-4-oxo-7-(2-phenylethynyl)-1,4-dihydronaphthalene-3-carboxamido)acetic acid]
30 | < 100 | O=C(O)CNC(=O)C1=C(O)c2cccc(Cl)c2C2(CCOCC2)C1=O [Example 111, N-((8-Chloro-2-hydroxy-4-oxo-2′,3′,5′,6′-tetrahydro-4H-spiro[naphthalene-1,4′-pyran]-3-yl)carbonyl)glycine]
31 | < 100 | O=C(O)CNC(=O)C1=C(O)c2c(Cl)cccc2C2(CCOCC2)C1=O [Example 112, N-((5-Chloro-2-hydroxy-4-oxo-2′,3′,5′,6′-tetrahydro-4H-spiro[naphthalene-1,4′-pyran]-3-yl)carbonyl)glycine]
32 | < 100 | O=C(O)CNC(=O)C1=C(O)c2ccc(F)c(F)c2C2(CCOCC2)C1=O [Example 113, N-((7,8-Difluoro-2-hydroxy-4-oxo-2′,3′,5′,6′-tetrahydro-4H-spiro[naphthalene-1,4′-pyran]-3-yl)carbonyl)glycine]
33 | 1000 to 10000 | CCCCCCCCc1ccc2c(c1)C(C)(C)C(=O)C(C(=O)NCC(=O)O)=C2O [Example 115, 2-(2-hydroxy-1,1-dimethyl-7-octyl-4-oxo-1,4-dihydronaphthalene-3-carboxamido) acetic acid]
34 | < 100 | COCC#Cc1ccc2c(c1)C(C)(C)C(=O)C(C(=O)NCC(=O)O)=C2O [Example 116, 2-(2-hydroxy-7-(3-methoxyprop-1-ynyl)-1,1-dimethyl-4-oxo-1,4-dihydronaphthalene-3-carboxamido) acetic acid]
35 | < 100 | CC1(C)C(=O)C(C(=O)NCC(=O)O)=C(O)c2ccc(C#Cc3cccnc3)cc21 [Example 117, 2-(2-hydroxy-1,1-dimethyl-4-oxo-7-(2-(pyridin-3-yl)ethynyl)-1,4-dihydronaphthalene-3-carboxamido) acetic acid]
36 | 100 to 500 | CC1(C)C(=O)C(C(=O)CCC(=O)O)=C(O)c2cc(Cl)c(Cl)cc21 [Example 118, 4-(6,7-Dichloro-3-hydroxy-4,4-dimethyl-1-oxo-1,4-dihydro-2-naphthalenyl)-4-oxobutanoic acid]
37 | < 100 | O=C(O)CCC(=O)C1=C(O)c2cc(Cl)ccc2C2(CCOCC2)C1=O [Example 119, 4-(6-Chloro-2-hydroxy-4-oxo-2′,3′,5′,6′-tetrahydro-4H-spiro[naphthalene-1,4′-pyran]-3-yl)-4-oxobutanoic acid]
38 | 1000 to 10000 | CC(CC(=O)O)C(=O)C1=C(O)c2cc(Cl)ccc2C2(CCOCC2)C1=O (centres unmarked) [Example 121, 4-(6-Chloro-2-hydroxy-4-oxo-2′,3′,5′,6′-tetrahydro-4H-spiro[naphthalene-1,4′-pyran]-3-yl)-3-methyl-4-oxobutanoic acid]
